From patent US11279699B2 (Suzhou Longbiotech Pharmaceuticals Co., Ltd., priority 2016, dated 2022) come the findings set out here.

What all share (assay type): biochemical
In one assay the target is JAK1 (Homo sapiens (Human), UniProt P23458). Briefly: Inhibition of JAK, luminescence kinase assay (ADP-Glo), JAK1. The note with it: for IC50: purified recombinant JAK1. As for the experimental part:
(§1) The study of the effect of compounds on the activity of purified recombinant JAK was performed by studying the inhibitory activity of the compounds on JAK from the enzymatic level. The experimental principle is to use a luminescence kinase assay to detect the ADP content produced by the reaction of JAK with the substrate Poly (4:1 Glu, Tyr) peptide: after ADP is converted to ATP, ATP can act as a substrate for the Ultra-Glo luciferase catalytic reaction, producing an optical signal. The luminescence signal is positively correlated with the amount of ADP and kinase activity. Therefore, the inhibitory effect of the compounds on the recombinant JAK was determined by observing the luminescence signal produced by the reaction of JAK and the substrate, and was expressed by IC50.
(§2) Experimental method: 10 different concentrations of compounds were incubated with JAK1, JAK2 and JAK3, respectively, for 60 minutes at 37° C. The substrate and ATP were then added, mixed, and reacted at 37° C. for 50 minutes. 25 μl of ADP-Glo™ was added and mixed for 2 minutes. The reaction was carried out for 50 minutes at room temperature. Further, 50 μl of the detection reagent was added and mixed for 2 minutes, and incubated at room temperature for 50 minutes, and detected by a chemiluminometer.
Background: In ADP-Glo the light output rises with the ADP produced.

Another assay deals with JAK2 (Homo sapiens (Human), UniProt O60674). The experiment in a line: Inhibition of JAK, luminescence kinase assay (ADP-Glo), JAK2. The following applies: purified recombinant JAK2. As for the experimental part: as §1, §2
JAK2, sequence (O60674 whole entry): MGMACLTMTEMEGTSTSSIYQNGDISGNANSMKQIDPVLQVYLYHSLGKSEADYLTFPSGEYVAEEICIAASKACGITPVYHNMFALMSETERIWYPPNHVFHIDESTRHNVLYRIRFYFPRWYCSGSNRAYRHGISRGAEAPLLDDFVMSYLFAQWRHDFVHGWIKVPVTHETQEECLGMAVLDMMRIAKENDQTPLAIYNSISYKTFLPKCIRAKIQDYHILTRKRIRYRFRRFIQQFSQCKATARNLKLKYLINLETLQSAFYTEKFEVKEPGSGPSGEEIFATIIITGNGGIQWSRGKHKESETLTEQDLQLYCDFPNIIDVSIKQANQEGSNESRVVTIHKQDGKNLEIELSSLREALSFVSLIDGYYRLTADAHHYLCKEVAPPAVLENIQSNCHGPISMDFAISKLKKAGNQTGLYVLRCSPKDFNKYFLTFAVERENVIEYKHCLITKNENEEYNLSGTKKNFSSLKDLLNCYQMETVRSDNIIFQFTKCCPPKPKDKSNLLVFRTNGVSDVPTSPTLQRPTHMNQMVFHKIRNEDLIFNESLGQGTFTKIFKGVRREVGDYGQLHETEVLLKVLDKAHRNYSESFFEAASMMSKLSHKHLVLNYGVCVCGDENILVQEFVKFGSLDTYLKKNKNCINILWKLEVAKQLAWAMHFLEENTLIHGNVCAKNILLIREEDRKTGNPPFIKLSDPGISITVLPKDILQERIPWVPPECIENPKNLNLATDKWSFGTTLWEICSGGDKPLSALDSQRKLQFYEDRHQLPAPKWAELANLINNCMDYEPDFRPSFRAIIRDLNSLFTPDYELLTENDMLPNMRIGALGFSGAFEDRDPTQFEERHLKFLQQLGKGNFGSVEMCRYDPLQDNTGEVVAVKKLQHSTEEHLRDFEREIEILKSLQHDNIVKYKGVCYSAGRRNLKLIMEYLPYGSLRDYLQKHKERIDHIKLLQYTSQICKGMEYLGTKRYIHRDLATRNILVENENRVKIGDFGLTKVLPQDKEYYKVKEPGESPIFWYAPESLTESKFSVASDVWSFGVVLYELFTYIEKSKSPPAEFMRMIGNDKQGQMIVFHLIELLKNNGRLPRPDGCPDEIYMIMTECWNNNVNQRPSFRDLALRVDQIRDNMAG
The target in the next assay is JAK3 (Homo sapiens (Human), UniProt P52333). The experiment in a line: Inhibition of JAK, luminescence kinase assay (ADP-Glo), JAK3. The note with it: purified recombinant JAK3. As for the experimental part: as §1, §2
JAK3, sequence (P52333 whole entry): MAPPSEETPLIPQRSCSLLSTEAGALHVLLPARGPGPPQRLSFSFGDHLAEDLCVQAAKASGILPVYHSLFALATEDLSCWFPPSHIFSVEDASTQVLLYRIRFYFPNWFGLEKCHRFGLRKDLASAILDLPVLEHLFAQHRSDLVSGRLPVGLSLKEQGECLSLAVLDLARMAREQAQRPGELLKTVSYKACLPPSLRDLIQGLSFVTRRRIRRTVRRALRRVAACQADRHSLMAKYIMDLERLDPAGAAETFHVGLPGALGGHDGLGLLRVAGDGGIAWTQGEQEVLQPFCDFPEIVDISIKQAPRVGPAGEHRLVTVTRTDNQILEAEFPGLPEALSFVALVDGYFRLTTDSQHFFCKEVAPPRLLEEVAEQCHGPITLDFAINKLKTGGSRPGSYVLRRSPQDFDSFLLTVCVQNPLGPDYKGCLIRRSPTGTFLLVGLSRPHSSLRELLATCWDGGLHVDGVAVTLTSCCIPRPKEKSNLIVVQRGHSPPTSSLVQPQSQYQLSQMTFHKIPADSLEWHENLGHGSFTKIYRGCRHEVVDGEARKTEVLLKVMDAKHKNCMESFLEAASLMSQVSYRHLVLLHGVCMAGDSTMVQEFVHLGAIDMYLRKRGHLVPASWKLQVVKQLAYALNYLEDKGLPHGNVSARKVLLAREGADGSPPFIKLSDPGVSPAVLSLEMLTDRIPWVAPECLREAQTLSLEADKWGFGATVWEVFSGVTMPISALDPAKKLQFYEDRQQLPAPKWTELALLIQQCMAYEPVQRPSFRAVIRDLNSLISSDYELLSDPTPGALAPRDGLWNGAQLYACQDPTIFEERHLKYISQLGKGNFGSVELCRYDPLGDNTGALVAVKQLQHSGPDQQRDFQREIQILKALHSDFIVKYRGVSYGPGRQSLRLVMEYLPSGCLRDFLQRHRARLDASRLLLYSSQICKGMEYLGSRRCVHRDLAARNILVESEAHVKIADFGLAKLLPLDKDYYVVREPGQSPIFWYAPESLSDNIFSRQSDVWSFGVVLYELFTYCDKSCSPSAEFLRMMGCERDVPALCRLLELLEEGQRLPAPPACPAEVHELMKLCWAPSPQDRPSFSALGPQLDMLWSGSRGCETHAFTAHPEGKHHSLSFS
Setting [1] is: Table 2, same experimental conditions.

JAK1, sequence (P23458 whole entry): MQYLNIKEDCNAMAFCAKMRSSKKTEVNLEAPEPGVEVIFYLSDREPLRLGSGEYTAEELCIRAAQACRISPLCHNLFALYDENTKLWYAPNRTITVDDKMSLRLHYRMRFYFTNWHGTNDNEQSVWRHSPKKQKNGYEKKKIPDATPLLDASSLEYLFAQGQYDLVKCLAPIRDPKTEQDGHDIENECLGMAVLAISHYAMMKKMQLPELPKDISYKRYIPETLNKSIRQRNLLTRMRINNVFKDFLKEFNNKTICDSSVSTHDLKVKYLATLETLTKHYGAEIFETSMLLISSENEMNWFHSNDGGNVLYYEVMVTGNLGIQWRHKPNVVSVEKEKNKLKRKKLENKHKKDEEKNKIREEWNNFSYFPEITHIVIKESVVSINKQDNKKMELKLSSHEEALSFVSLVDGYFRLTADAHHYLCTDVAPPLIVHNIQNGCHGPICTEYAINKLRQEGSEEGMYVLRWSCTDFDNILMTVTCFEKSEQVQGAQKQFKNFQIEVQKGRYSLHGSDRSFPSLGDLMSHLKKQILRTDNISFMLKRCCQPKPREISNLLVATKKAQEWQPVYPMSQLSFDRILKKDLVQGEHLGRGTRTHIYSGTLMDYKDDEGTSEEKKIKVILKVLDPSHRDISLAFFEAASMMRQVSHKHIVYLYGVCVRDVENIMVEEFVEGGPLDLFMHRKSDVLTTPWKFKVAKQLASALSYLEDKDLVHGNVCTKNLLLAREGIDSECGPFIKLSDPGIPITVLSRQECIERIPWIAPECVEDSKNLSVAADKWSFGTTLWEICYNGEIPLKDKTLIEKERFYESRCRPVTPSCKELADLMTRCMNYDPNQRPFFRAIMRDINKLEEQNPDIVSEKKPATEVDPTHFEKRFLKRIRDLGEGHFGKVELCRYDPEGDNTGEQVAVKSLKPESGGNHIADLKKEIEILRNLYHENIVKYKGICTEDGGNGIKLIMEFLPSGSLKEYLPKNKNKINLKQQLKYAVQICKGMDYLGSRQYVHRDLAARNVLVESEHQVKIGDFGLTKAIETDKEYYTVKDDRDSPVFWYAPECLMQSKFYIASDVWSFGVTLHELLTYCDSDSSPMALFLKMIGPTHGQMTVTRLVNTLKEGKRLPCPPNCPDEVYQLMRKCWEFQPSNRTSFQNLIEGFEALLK

`CS(=O)(=O)C1CN(Cc2ccc(-c3cccc4nc(NC(=O)C5CC5)nn34)cc2)C1` [Example 1, N-(5-(4-((3-(methylsulfonyl)azetidin-1-yl)methyl)phenyl)-[1,2,4]triazolo[1,5-a]pyridin-2-yl]cyclopropanecarboxamide]: the “inhibitory activity against JAK1 relative to JAK2 (selectivity)” value against JAK1 (JAK1 versus JAK2, from Table 2) is listed as 10 times. For the same compound, the 50% inhibitory concentration (IC50) (usually the midpoint of a concentration-inhibition curve) on JAK1 (Table 1) is 20 to 50 nM; on JAK1 (setting [1]), 48 nM; on JAK2 (Table 1), greater than 50 nM; at JAK2 (setting [1]) it was 498 nM; on JAK3 (Table 1) it was greater than 50 nM; at JAK3 (setting [1]) it was 2430 nM.
For `CS(=O)(=O)C1CN(Cc2ccc(-c3cccc4nc(NC(=O)C5CC5)nn34)cc2F)C1` [Example 2, N-(5-(3-fluoro-4-((3-(methylsulfonyl)azetidin-1-yl)methyl)phenyl)-[1,2,4]triazolo[1,5-a]pyridin-2-yl]cyclopropanecarboxamide], the IC50 on JAK1 (Table 1) lay within 20 to 50 nM.
On to `CS(=O)(=O)C1CN(Cc2c(F)cc(-c3cccc4nc(NC(=O)C5CC5)nn34)cc2F)C1` [Example 3, N-(5-(3,5-difluoro-4-((3-(methylsulfonyl)azetidin-1-yl)methyl)phenyl)-[1,2,4]triazolo[1,5-a]pyridin-2-yl]cyclopropanecarboxamide], for which the IC50 on JAK1 (Table 1) was 20 to 50 nM; on JAK2 (Table 1), greater than 50 nM; on JAK3 (Table 1) it was greater than 50 nM.
Consider `CC(C)C(=O)Nc1nc2cccc(-c3ccc(CN4CC(S(=O)(=O)C5CC5)C4)cc3)n2n1` [Example 5, N-(5-(4-((3-(cyclopropylsulfonyl)azetidin-1-yl)methyl)phenyl)-[1,2,4]triazolo[1,5-a]pyridin-2-yl]isobutyramide], for which the IC50 was 20 to 50 nM on JAK1 (Table 1) and greater than 50 nM on JAK2 (Table 1).
Take `CCS(=O)(=O)C1CN(Cc2ccc(-c3cccc4nc(NC(=O)C(C)C)nn34)cc2)C1` [Example 6, N-(5-(4-((3-(ethylsulfonyl)azetidin-1-yl)methyl)phenyl)-[1,2,4]triazolo[1,5-a]pyridin-2-yl]isobutyramide]: the IC50 on JAK1 (Table 1), on JAK2 (Table 1) and at JAK3 (Table 1) was greater than 50 nM each time.
On to `CCS(=O)(=O)C1CN(Cc2ccc(-c3cccc4nc(NC(=O)C5CC5)nn34)cc2)C1` [Example 7, N-(5-(4-((3-(ethylsulfonyl)azetidin-1-yl)methyl)phenyl)-[1,2,4]triazolo[1,5-a]pyridin-2-yl]cyclopropanecarboxamide], for which the IC50 on JAK1 (Table 1) is 20 to 50 nM; at JAK2 (Table 1), greater than 50 nM.
For `CS(=O)(=O)C1CN(Cc2ccc(-c3cccc4nc(N)nn34)cc2)C1` [Example 8, 5-(4-((3-(methylsulfonyl)azetidin-1-yl)methyl)phenyl)-[1,2,4]triazolo[1,5-a]pyridin-2-ylamine], the IC50 was 20 to 50 nM at JAK1 (Table 1), greater than 50 nM at JAK2 (Table 1) and 20 to 50 nM on JAK3 (Table 1).
On to `CS(=O)(=O)C1CN(Cc2ccc(-c3cccn4nc(NC(=O)C5CC5)nc34)cc2)C1` [Example 9, N-(8-(4-((3-(methylsulfonyl)azetidin-1-yl)methyl)phenyl)-[1,2,4]triazolo[1,5-a]pyridin-2-yl]cyclopropanecarboxamide], for which the IC50 was 20 to 50 nM on JAK1 (Table 1), greater than 50 nM on JAK2 (Table 1) and greater than 50 nM at JAK3 (Table 1).
For `O=C(Nc1nc2c(-c3ccc(CN4CC(S(=O)(=O)C5CC5)C4)cc3)cccn2n1)C1CC1` [Example 10, N-(8-(4-((3-(cyclopropylsulfonyl)azetidin-1-yl)methyl)phenyl)-[1,2,4]triazolo[1,5-a]pyridin-2-yl]cyclopropanecarboxamide], the IC50 on JAK1 (Table 1), on JAK2 (Table 1) and at JAK3 (Table 1) was greater than 50 nM in each case.
Take `CCS(=O)(=O)C1CN(Cc2ccc(-c3cccn4nc(NC(=O)C5CC5)nc34)cc2)C1` [Example 11, N-(8-(4-((3-(ethylsulfonyl)azetidin-1-yl)methyl)phenyl)-[1,2,4]triazolo[1,5-a]pyridin-2-yl]cyclopropanecarboxamide]: the IC50 at JAK1 (Table 1) is 20 to 50 nM; at JAK2 (Table 1), greater than 50 nM; at JAK3 (Table 1), greater than 50 nM.
Turning to `CC(C)C(=O)Nc1nc2c(-c3ccc(CN4CC(S(C)(=O)=O)C4)cc3)cccn2n1` [Example 12], the figures for the half-maximal inhibitory concentration (IC50) on JAK1 (Table 1), on JAK2 (Table 1) and on JAK3 (Table 1) were 20 to 50 nM, greater than 50 nM and greater than 50 nM, respectively.
For the compound `CC(C)C(=O)Nc1nc2c(-c3ccc(CN4CC(S(=O)(=O)C5CC5)C4)cc3)cccn2n1` [Example 13, N-(8-(4-((3-(cyclopropylsulfonyl)azetidin-1-yl)methyl)phenyl)-[1,2,4]triazolo[1,5-a]pyridin-2-yl]isobutyramide], the IC50 on JAK1 (Table 1) is 20 to 50 nM; on JAK2 (Table 1) it was greater than 50 nM; on JAK3 (Table 1) it was greater than 50 nM.
For the compound `CCS(=O)(=O)C1CN(Cc2ccc(-c3cccn4nc(NC(=O)C(C)C)nc34)cc2)C1` [Example 14, N-(8-(4-((3-(ethylsulfonyl)azetidin-1-yl)methyl)phenyl)-[1,2,4]triazolo[1,5-a]pyridin-2-yl]isobutyramide], the IC50 on JAK1 (Table 1) was 20 to 50 nM; at JAK2 (Table 1), greater than 50 nM; on JAK3 (Table 1) it was greater than 50 nM.
On to `CS(=O)(=O)C1CN(Cc2ccc(-c3cccn4nc(NC(=O)C5CC5)nc34)cc2F)C1` [Example 15, N-(8-(3-fluoro-4-((3-(methylsulfonyl)azetidin-1-yl)methyl)phenyl)-[1,2,4]triazolo[1,5-a]pyridin-2-yl]cyclopropanecarboxamide], for which the IC50 at JAK1 (Table 1) was in the range of 20 to 50 nM.
In the case of `CS(=O)(=O)C1CN(Cc2c(F)cc(-c3cccn4nc(NC(=O)C5CC5)nc34)cc2F)C1` [Example 16, N-(8-(3,5-difluoro-4-((3-(methylsulfonyl)azetidin-1-yl)methyl)phenyl)-[1,2,4]triazolo[1,5-a]pyridin-2-yl]cyclopropanecarboxamide], the IC50 at JAK1 (Table 1), on JAK2 (Table 1) and on JAK3 (Table 1) was greater than 50 nM throughout.
With `CS(=O)(=O)C1CN(Cc2ccc(-c3cccn4nc(N)nc34)cc2)C1` [Example 17, 8-(4-((3-(methylsulfonyl)azetidin-1-yl)methyl)phenyl)-[1,2,4]triazolo[1,5-a]pyridin-2-ylamine], the IC50 at JAK1 (Table 1) was 20 to 50 nM; at JAK2 (Table 1), greater than 50 nM; on JAK3 (Table 1), 20 to 50 nM.
Regarding `CCS(=O)(=O)C1CN(Cc2ccc(-c3cccn4nc(N)nc34)cc2)C1` [Example 18, 8-(4-((3-(ethylsulfonyl)azetidin-1-yl)methyl)phenyl)-[1,2,4]triazolo[1,5-a]pyridin-2-ylamine], the IC50 on JAK1 (Table 1), on JAK2 (Table 1) and on JAK3 (Table 1) was greater than 50 nM each time.
As to `O=S1(=O)CCN(Cc2ccc(-c3ncnc4[nH]ccc34)cc2)CC1` [Example 19, 4-(4-(7H-pyrrolo[2,3-d]pyrimidin-4-yl)benzyl)thiomorpholine 1,1-dioxide], the IC50 at JAK1 (Table 1) was less than 20 nM; at JAK2 (Table 1), greater than 50 nM; on JAK3 (Table 1), greater than 50 nM.
